Experiments:
[1] = system: A431 (wild-type EGFR overexpressing) cells; assay: Cell proliferation assay (MTS), A431; format: cell-based; conditions: Homo sapiens, A-431, 96 h exposure
Experimental: (§1) A431 (wild-type EGFR overexpressing) and H1975 (double-mutant overexpressing) cells were exposed to test compounds for 96 h and the cell proliferation was determined by the MTS method.

[2] = system: H1975 (double-mutant overexpressing) cells; assay: Cell proliferation assay (MTS), H1975; format: cell-based; conditions: Homo sapiens, NCI-H1975, 96 h exposure
Experimental: as §1

| IC50 [1] [nM] | IC50 [2] [nM] | Compound |
| --- | --- | --- |
| > 5000 | 200 to 5000 | C=CC(=O)Nc1cc(-c2c(-c3ccccc3)oc3ncnc(NC4CCCC4)c23)ccc1N1CC[C@@H](N(C)C)C1 [Compound 28, N-{5-[4-(Cyclopentylamino)-6-phenylfuro[2,3-d]pyrimidin-5-yl]-2-[(3R)-3-(dimethylamino)pyrrolidin-1-yl]phenyl}prop-2-enamide] |
| 200 to 5000 | 200 to 5000 | C=CC(=O)Nc1cc(-c2c(-c3ccccc3)oc3ncnc(NCCc4ccc(O)cc4)c23)ccc1N1CCN(C)CC1 [Compound 36, N-[5-(4-{[2-(4-Hydroxyphenyl)ethyl]amino}-6-phenylfuro[2,3-d]pyrimidin-5-yl)-2-(4-methylpiperazin-1-yl)phenyl]prop-2-enamide] |
| 200 to 5000 | 200 to 5000 | C=CC(=O)Nc1cc(-c2c(-c3ccccc3)oc3ncnc(NCCc4ccc(O)cc4)c23)ccc1N(C)CCN(C)C [Compound 37, N-[2-{[2-(Dimethylamino)ethyl](methyl)amino}-5-(4-{[2-(4-hydroxyphenyl)ethyl]amino}-6-phenylfuro[2,3-d]pyrimidin-5-yl)phenyl]prop-2-enamide] |
| > 5000 | 200 to 5000 | C=CC(=O)Nc1cc(-c2c(-c3ccccc3)oc3ncnc(NCCc4ccc(O)cc4)c23)ccc1N(C)CCN1CCN(C)CC1 [Compound 40, N-[5-(4-{[2-(4-Hydroxyphenyl)ethyl]amino}-6-phenylfuro[2,3-d]pyrimidin-5-yl)-2-{methyl [2-(4-methylpiperazin-1-yl)ethyl]amino}phenyl]prop-2-enamide] |
| 200 to 5000 | < 200 | C=CC(=O)Nc1cc(-c2c(-c3ccccc3)oc3ncnc(NCCc4ccc(S(N)(=O)=O)cc4)c23)ccc1N(C)CCN(C)C [Compound 41, N-(5-[4-({2-[4-(Aminosulfonyl)phenyl]ethyl}amino)-6-phenylfuro-[2,3-d]pyrimidin-5-yl]-2-{[2-(dimethylamino)ethyl](methyl)amino}phenyl)prop-2-enamide] |
| 200 to 5000 | < 200 | C=CC(=O)Nc1cc(-c2c(-c3ccc(F)cc3)oc3ncnc(NC4CCCC4)c23)ccc1N(C)CCN(C)C [Compound 42, N-(5-[4-(Cyclopentylamino)-6-(4-fluorophenyl)furo[2,3-d]pyrimi-din-5-yl]-2-{[2-(dimethylamino)ethyl](methyl)amino}phenyl)prop-2-enamide] |
| 200 to 5000 | < 200 | C=CC(=O)Nc1cc(-c2c(-c3ccccc3)oc3ncnc(Nc4ccccc4)c23)ccc1N(C)CCN(C)C [Compound 43, N-(2-{[2-(Dimethylamino)ethyl](methyl)amino}-5-[6-phenyl-4-(phenylamino)furo[2,3-d]pyrimidin-5-yl]phenyl)prop-2-enamide] |
| 200 to 5000 | < 200 | C=CC(=O)Nc1cc(-c2c(-c3ccccc3)oc3ncnc(N[C@H]4CC[C@@H](O)CC4)c23)ccc1N(C)CCN(C)C [Compound 52, N-(2-{[2-(Dimethylamino)ethyl](methyl)amino}-5-{4-[(4-hydroxy-cyclohexyl)amino]-6-phenylfuro[2,3-d]pyrimidin-5-yl}phenyl)prop-2-enamide] |
| 200 to 5000 | < 200 | C=CC(=O)Nc1cc(-c2c(-c3ccccc3)oc3ncnc(N[C@@H]4CCCC[C@@H]4O)c23)ccc1N(C)CCN(C)C [Compound 53, N-[2-{[2-(Dimethylamino)ethyl](methyl)amino}-5-(4-{[(1R,2S)-2-hydroxycyclohexyl]amino}-6-phenylfuro[2,3-d]pyrimidin-5-yl)phenyl]prop-2-enamide] |
| 200 to 5000 | < 200 | C=CC(=O)Nc1cc(-c2c(-c3ccccc3)oc3ncnc(N[C@H]4CC[C@H](O)CC4)c23)ccc1N(C)CCN(C)C [Compound 55, N-(2-{[2-(Dimethylamino)ethyl](methyl)amino}-5-{4-[(4-hydroxy-cyclohexyl)amino]-6-phenylfuro[2,3-d]pyrimidin-5-yl}phenyl)prop-2-enamide] |
| 200 to 5000 | < 200 | C=CC(=O)Nc1cccc(-c2c(-c3ccccc3)oc3ncnc(N4CCC4)c23)c1 [Compound 61, N-{3-[4-(Azetidin-1-yl)-6-phenylfuro[2,3-d]pyrimidin-5-yl]phenyl}prop-2-enamide] |

Source: US20250243215A1, “INHIBITORS OF EPIDERMAL GROWTH FACTOR RECEPTOR” (National Health Research Institutes, priority 2024, published 2025)
